In brackets after ≈: the same amount, converted by molar mass. Where two headings read alike, the source gives them in different places.
How the values were obtained:
E. faecalis VRE 37 = experiment: MIC, broth microdilution, vancomycin-resistant E. faecalis VRE 37 (VanA); type: cell-based, Enterococcus faecalis
Summary of the method: (§1)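 Inhibitory concentrations were read by the CLSI broth microdilution procedure, with water and sterile broth as controls. One experiment added vancomycin (10 μM final) together with each analogue or reference antibiotic.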

MRSA KS2 = experiment: MIC, broth microdilution, MRSA KS2; type: cell-based, Staphylococcus aureus
Summary of the method: as §1

VE 149 (VanB) = experiment: MIC, VanB-type VRE strain VE 149; type: cell-based, Enterococcus; conditions: Enterococcus; VE 149, VanB; read-out: MIC
Experimental: (§2) The minimum inhibitory concentration (MIC) was determined using the broth microdilution method according to the antimicrobial susceptibility testing standards of the clinical and laboratory standards institute ([Clinical and Laboratory Standards Institute [CLSI], 2012]). Ultrapure water and non-inoculated broth were used as controls. In one case, a final concentration of 10 μM vancomycin was included with the vancomycin analog or control antibiotic.

VE 150 (VanB) = experiment: MIC, VanB-type VRE strain VE 150; type: cell-based, Enterococcus; conditions: Enterococcus; VE 150, VanB; read-out: MIC
Experimental: as §2

[1] = system: L1210, CEM and HeLa cell lines; experiment: Cytostatic activity, average or summary over L1210, CEM and HeLa; type: cell-based
Summary of the method: (§3)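 Coulter counter cell counts after 37°C culture with compound; IC50 = concentration giving 50% growth inhibition vs negative control. Incubation: L1210 2 d, CEM 3 d, HeLa 4 d. Suspension density before mixing with an equal volume of dilution: 300,000–500,000 cells/mL.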

VE 82 (VanC1) = experiment: MIC, VanC1-type VRE strain VE 82; type: cell-based, Enterococcus gallinarum; conditions: Enterococcus gallinarum; VE 82, VanC1; read-out: MIC
Experimental: as §2

VE 157 (VanB) = experiment: MIC, VanB-type VRE strain VE 157; type: cell-based, Enterococcus; conditions: Enterococcus; VE 157, VanB; read-out: MIC
Experimental: as §2

E. faecalis VRE 29 = experiment: MIC, broth microdilution, vancomycin-resistant E. faecalis VRE 29 (VanA); type: cell-based, Enterococcus faecalis
Summary of the method: as §1

[2] = system: Murine leukemia (L1210) cells; experiment: Cytostatic activity, L1210 cell proliferation; type: cell-based; conditions: Mus musculus, L1210, 48 h; mean ± SD of three experiments; highest concentration tested 250 µM; 2 days; read-out: Toxicity (IC50) L1210
Summary of the method: as §3

[3] = system: 24 clinical MRSA isolates; experiment: MIC against a set of 24 clinical MRSA isolates (range, MIC50, TI); type: cell-based, Staphylococcus aureus
Experimental: as §2

S. aureus VRSA = experiment: MIC, broth microdilution, vancomycin-resistant S. aureus (VRSA); type: cell-based, Staphylococcus aureus
Summary of the method: as §1

33 clinical VRE isolates = experiment: MIC against a set of 33 clinical VRE isolates (range, MIC50, TI); type: cell-based, Enterococcus faecalis
Experimental: as §2

VE 152 (VanB) = experiment: MIC, VanB-type VRE strain VE 152; type: cell-based, Enterococcus; conditions: Enterococcus; VE 152, VanB; read-out: MIC
Experimental: as §2

MRSA KS1 = experiment: MIC, broth microdilution, MRSA KS1; type: cell-based, Staphylococcus aureus
Summary of the method: as §1

[4] = system: human cervix carcinoma (HeLa) cells; experiment: Cytostatic activity, HeLa cell proliferation; type: cell-based; conditions: Homo sapiens, HeLa, 96 h; mean ± SD of three experiments; highest concentration tested 250 µM; 4 days; read-out: Toxicity (IC50) HeLa
Summary of the method: as §3

[5] = system: S. aureus VSSA (ATCC 6538); experiment: MIC, broth microdilution, vancomycin-sensitive S. aureus (VSSA/MSSA, ATCC 6538); type: cell-based, Staphylococcus aureus
Summary of the method: as §1

MRSA [6] = experiment: Minimum bactericidal concentration against MRSA; type: cell-based, Staphylococcus aureus
Experimental: Plates were incubated overnight at 37°C and colony growth was inspected.

VE 148 (VanB) = experiment: MIC, VanB-type VRE strain VE 148; type: cell-based, Enterococcus; conditions: Enterococcus; VE 148, VanB; read-out: MIC
Experimental: as §2

E. faecalis VRE 53 = experiment: MIC, broth microdilution, vancomycin-resistant E. faecalis VRE 53 (VanA); type: cell-based, Enterococcus faecalis
Summary of the method: as §1

MRSA [7] = experiment: Time-kill curves, MRSA at 4x MIC; type: cell-based, Staphylococcus aureus; conditions: 1-24 h
Experimental: Time-kill curves were determined based on the CLSI guidelines ([Clinical and Laboratory Standards Institute [CLSI], 1999]). Single colonies grown overnight at 37°C were resuspended in Ca^2+-adjusted (0.05 mg/mL) Mueller Hinton broth up to an optical density (625 nm) of 0.08–00.10 (corresponding to the 0.5 McFarland standard), followed by a 10-fold dilution in the same broth. Subsequently, 0.2 mL inoculum was added to 1.7 mL Ca^2+-adjusted (0.05 mg/mL) Mueller Hinton broth, followed by addition of the antibacterial compound (0.1 mL). The final concentration of the antibacterial compound corresponded to the 4x MIC value for that compound. For the antibiotic-free control, the compound was replaced by an equal volume of ultrapure water. The final inoculum concentration was approximately 10^6 CFU/mL. The cultures were continuously shaken at 37°C. After 1, 2, 4, 6, 8, and 24 h, a 0.1 mL aliquot was removed, serially diluted in cold 0.9% w/v NaCl and plated on BHI (VRE) and LB (MRSA) agar plates. Plates were incubated overnight at 37°C and colonies were counted.

[8] = system: human T-lymphocyte (CEM) cells; experiment: Cytostatic activity, CEM cell proliferation; type: cell-based; conditions: Homo sapiens, CCRF-CEM, 72 h; mean ± SD of three experiments; highest concentration tested 250 µM; 3 days; read-out: Toxicity (IC50) CEM
Summary of the method: as §3

MRSA KS89 = experiment: MIC, broth microdilution, MRSA KS89; type: cell-based, Staphylococcus aureus
Summary of the method: as §1

E. faecalis VSE 1 = experiment: MIC, broth microdilution, vancomycin-sensitive E. faecalis (VSE 1); type: cell-based, Enterococcus faecalis
Summary of the method: as §1

E. faecalis VRE 6 = experiment: MIC, broth microdilution, vancomycin-resistant E. faecalis VRE 6 (VanA); type: cell-based, Enterococcus faecalis
Summary of the method: as §1

MRSA KS6 = experiment: MIC, broth microdilution, MRSA KS6; type: cell-based, Staphylococcus aureus
Summary of the method: as §1

S. aureus VISA/HIP5827 = experiment: MIC, broth microdilution, vancomycin-intermediate S. aureus VISA HIP5827; type: cell-based, Staphylococcus aureus
Summary of the method: as §1

CC(=O)NC[C@H]1CN(c2ccc(N3CCOCC3)c(F)c2)C(=O)O1 [Linezolid, reference compound]
MIC (E. faecalis VRE 37; Enterococcus faecalis, VRE): 6.25 µM (≈ 2.11 µg/mL) | MIC-fold improvement vs. vancomycin (E. faecalis VRE 37; VRE 37, ratio of MIC of vancomycin and MIC of analogue): 64 | MIC-fold improvement vs. vancomycin (MRSA KS2; MRSA KS2, ratio of MIC of vancomycin and MIC of analogue): 0.1 | MIC (MRSA KS2; Staphylococcus aureus, MRSA): 6.25 µM (≈ 2.11 µg/mL) | MIC (VE 149 (VanB)): 12.5 µM (≈ 4.22 µg/mL) | MIC (VE 150 (VanB)): 12.5 µM (≈ 4.22 µg/mL) | IC50 ([1]; average IC50 used for TI in Table S5, >250 entered as 250, read-out: IC50): 208 µM | IC50 ([1]; average of L1210, CEM and HeLa, read-out: Toxicity (IC50) Average): 208 µM | MIC (VE 82 (VanC1)): 12.5 µM (≈ 4.22 µg/mL) | MIC (VE 157 (VanB)): 12.5 µM (≈ 4.22 µg/mL) | MIC (E. faecalis VRE 29; Enterococcus faecalis, VRE): 6.25 µM (≈ 2.11 µg/mL) | MIC-fold improvement vs. vancomycin (E. faecalis VRE 29; VRE 29, ratio of MIC of vancomycin and MIC of analogue): 64 | IC50 [2]: 157 ± 7 µM | MIC Range ([3]; 24 clinical MRSA isolates): 6.25 to 25 µM | MIC50 ([3]; Staphylococcus aureus, median MIC, 24 clinical MRSA isolates, read-out: MIC50): 25 µM (≈ 8.43 µg/mL) | TI (IC50/MIC50) ([3]; in vitro therapeutic index, MRSA): 8 | MIC (S. aureus VRSA; Staphylococcus aureus VRSA): 6.25 µM (≈ 2.11 µg/mL) | MIC-fold improvement vs. vancomycin (S. aureus VRSA; VRSA, ratio of MIC of vancomycin and MIC of analogue): 16 | MIC Range (33 clinical VRE isolates; 33 clinical VRE isolates): 3.13 to 50 µM | MIC50 (33 clinical VRE isolates; Enterococcus, median MIC, 33 clinical VRE isolates, read-out: MIC50): 6.25 µM (≈ 2.11 µg/mL) | TI (IC50/MIC50) (33 clinical VRE isolates; in vitro therapeutic index, VRE): 33 | MIC (VE 152 (VanB)): 12.5 µM (≈ 4.22 µg/mL) | MIC-fold improvement vs. vancomycin (MRSA KS1; MRSA KS1, ratio of MIC of vancomycin and MIC of analogue): 0.05 | MIC (MRSA KS1; Staphylococcus aureus MRSA KS1, read-out: MIC): 12.5 µM (≈ 4.22 µg/mL) | IC50 [4]: 216 ± 48 µM | MIC ([5]; ATCC6538, Staphylococcus aureus VSSA, read-out: MIC): > 3.13 µM | MIC-fold improvement vs. vancomycin ([5]; VSSA, ratio of MIC of vancomycin and MIC of analogue): <0.2 | MBC relative to MIC (MRSA [6]): more than four times higher than the corresponding MIC | MIC (VE 148 (VanB)): 12.5 µM (≈ 4.22 µg/mL) | MIC (E. faecalis VRE 53; Enterococcus faecalis, VRE): 6.25 µM (≈ 2.11 µg/mL) | MIC-fold improvement vs. vancomycin (E. faecalis VRE 53; VRE 53, ratio of MIC of vancomycin and MIC of analogue): 64 | time-kill curve character (MRSA [7]): typical bacteriostatic time-kill curve | IC50 [8]: > 250 µM | MIC-fold improvement vs. vancomycin (MRSA KS89; MRSA KS8 (head; KS89 in title), ratio of MIC of vancomycin and MIC of analogue): 0.1 | MIC (MRSA KS89; Staphylococcus aureus, MRSA): 6.25 µM (≈ 2.11 µg/mL) | MIC (E. faecalis VSE 1; VSE1, Enterococcus faecalis VSE 1 (vancomycin-sensitive), read-out: MIC): > 3.13 µM | MIC-fold improvement vs. vancomycin (E. faecalis VSE 1; VSE 1, ratio of MIC of vancomycin and MIC of analogue): <0.5 | MIC (E. faecalis VRE 6; Enterococcus faecalis VRE 6 (vancomycin-resistant), read-out: MIC): 12.5 µM (≈ 4.22 µg/mL) | MIC-fold improvement vs. vancomycin (E. faecalis VRE 6; VRE 6, ratio of MIC of vancomycin and MIC of analogue): 16 | MIC-fold improvement vs. vancomycin (MRSA KS6; MRSA KS6, ratio of MIC of vancomycin and MIC of analogue): 0.1 | MIC (MRSA KS6; Staphylococcus aureus, MRSA): 6.25 µM (≈ 2.11 µg/mL) | MIC (S. aureus VISA/HIP5827; Staphylococcus aureus, VISA): 3.13 µM (≈ 1.06 µg/mL) | MIC-fold improvement vs. vancomycin (S. aureus VISA/HIP5827; VISA/HIP5827, ratio of MIC of vancomycin and MIC of analogue): 2
